According to PubChem BioAssay AID1259407 (Chemical Carcinogenesis Research Information System (CCRIS), 2018):
The source made the active and inactive calls. No rule for the calls is given here.

Tested on: CCRIS mutagenicity, Ames/micronucleus/aberration tests
Test: CCRIS mutagenicity studies
Details: Test System: AMES SALMONELLA TYPHIMURIUM

## NC(=O)c1cnccn1
Strain/Indicator: TA98, Metabolic Activation: HAMSTER, LIVER, S-9, AROCLOR 1254 (10%), Method: PREINCUBATION
  mutagenic call: inactive; negative
Strain/Indicator: TA98, Metabolic Activation: NONE, Method: PREINCUBATION
  mutagenic call: inactive; negative
Strain/Indicator: TA98, Metabolic Activation: RAT, LIVER, S-9, AROCLOR 1254 (10%), Method: PREINCUBATION
  mutagenic call: inactive; negative
Strain/Indicator: TA100, Metabolic Activation: HAMSTER, LIVER, S-9, AROCLOR 1254 (10%), Method: PREINCUBATION
  mutagenic call: inactive; negative
Strain/Indicator: TA100, Metabolic Activation: NONE, Method: PREINCUBATION
  mutagenic call: inactive; negative
Strain/Indicator: TA100, Metabolic Activation: RAT, LIVER, S-9, AROCLOR 1254 (10%), Method: PREINCUBATION
  mutagenic call: inactive; negative
Strain/Indicator: TA1535, Metabolic Activation: HAMSTER, LIVER, S-9, AROCLOR 1254 (10%), Method: PREINCUBATION
  mutagenic call: inactive; negative
Strain/Indicator: TA1535, Metabolic Activation: NONE, Method: PREINCUBATION
  mutagenic call: inactive; negative
Strain/Indicator: TA1535, Metabolic Activation: RAT, LIVER, S-9, AROCLOR 1254 (10%), Method: PREINCUBATION
  mutagenic call: inactive; negative
Strain/Indicator: TA1537, Metabolic Activation: HAMSTER, LIVER, S-9, AROCLOR 1254 (10%), Method: PREINCUBATION
  mutagenic call: inactive; negative
Strain/Indicator: TA1537, Metabolic Activation: NONE, Method: PREINCUBATION
  mutagenic call: inactive; negative
Strain/Indicator: TA1537, Metabolic Activation: RAT, LIVER, S-9, AROCLOR 1254 (10%), Method: PREINCUBATION
  mutagenic call: inactive; negative

## O=Cc1cccc2cccnc12
Strain/Indicator: TA98, Metabolic Activation: NONE, Method: STANDARD PLATE
  mutagenic call: inactive; negative
Strain/Indicator: TA98, Metabolic Activation: RAT, LIVER, S-9, AROCLOR 1254, Method: STANDARD PLATE
  mutagenic call: inactive; negative
Strain/Indicator: TA100, Metabolic Activation: NONE, Method: STANDARD PLATE
  mutagenic call: inactive; negative
Strain/Indicator: TA100, Metabolic Activation: RAT, LIVER, S-9, AROCLOR 1254, Method: STANDARD PLATE
  mutagenic call: active; positive
Strain/Indicator: TA1535, Metabolic Activation: NONE, Method: STANDARD PLATE
  mutagenic call: inactive; negative
Strain/Indicator: TA1535, Metabolic Activation: RAT, LIVER, S-9, AROCLOR 1254, Method: STANDARD PLATE
  mutagenic call: inactive; negative
Strain/Indicator: TA1537, Metabolic Activation: NONE, Method: STANDARD PLATE
  mutagenic call: inactive; negative
Strain/Indicator: TA1537, Metabolic Activation: RAT, LIVER, S-9, AROCLOR 1254, Method: STANDARD PLATE
  mutagenic call: inactive; negative
